From the supplement of paper PMC8960247
Where a name gives a salt, the structure may show the parent alone. ± gives the standard error.

Legend:
621-102 (TSC2-deficient) = assay: relative viability vs DMSO; higher = less cytotoxic; settings: serum: 10% FBS, 72 h
621-103 (TSC2-rescued) = assay: as above; settings: serum: 10% FBS, 72 h
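Note: immortalized renal angiomyolipoma cells stably carrying empty vector or TSC2, dosed in 384-well plates in DMEM, viability normalized to vehicle-treated wells within each plate.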

| SMILES | relative viability (621-102 (TSC2-deficient); 0.0001 µM) [%] | relative viability (621-102 (TSC2-deficient); 0.001 µM) [%] | relative viability (621-102 (TSC2-deficient); 0.01 µM) [%] | relative viability (621-102 (TSC2-deficient); 0.1 µM) [%] | relative viability (621-102 (TSC2-deficient); 1 µM) [%] | relative viability (621-102 (TSC2-deficient); 10 µM) [%] | relative viability (621-103 (TSC2-rescued); 0.0001 µM) [%] | relative viability (621-103 (TSC2-rescued); 0.001 µM) [%] | relative viability (621-103 (TSC2-rescued); 0.01 µM) [%] | relative viability (621-103 (TSC2-rescued); 0.1 µM) [%] | relative viability (621-103 (TSC2-rescued); 1 µM) [%] | relative viability (621-103 (TSC2-rescued); 10 µM) [%] |
| --- | --- | --- | --- | --- | --- | --- | --- | --- | --- | --- | --- | --- |
| O=C(CN1C(=O)C2(CCCC2)NC[C@H]1c1cc(F)cc(F)c1)Nc1ccc2c(c1)C[C@@]1(C2)C(=O)Nc2ncccc21 [MK 3207 hydrochloride] | 114 ± 1.5 | 114 ± 1.4 | 114.8 ± 0.14 | 113 ± 3.3 | 116.5 ± 0.26 | 104 ± 2.5 | 103 ± 1.3 | 103 ± 1.4 | 101.4 ± 0.9 | 101.2 ± 0.77 | 102 ± 2 | 102 ± 1.4 |
| c1ccc2c(CC3=NCCN3)cccc2c1 [Naphazoline HCl] | 122 ± 2.4 | 109 ± 2.6 | 117 ± 3 | 111 ± 3.6 | 106.3 ± 0.15 | 112 ± 1.5 | 103 ± 2 | 105.1 ± 0.24 | 103 ± 1.7 | 99.2 ± 5.5 | 104 ± 0.12 | 101.3 ± 0.62 |
| C[C@]12CC[C@H](O)CC1=CC[C@@H]1[C@@H]2CC[C@]2(C)C(=O)CC[C@@H]12 [DHEA] | 105.05 ± 0.093 | 105 ± 1.6 | 99.6 ± 3.3 | 104 ± 2.9 | 97.2 ± 3.6 | 107 ± 1.8 | 73.1 ± 4.3 | 81.7 ± 1.7 | 80.2 ± 3.5 | 86.4 ± 7 | 79 ± 6 | 71.2 ± 8.4 |
| COc1c(C)cnc(Cn2cnc3c(Cl)nc(N)nc32)c1C [BIIB021] | 107 ± 1.3 | 120 ± 2.2 | 117 ± 4.1 | 79 ± 2.7 | 33.3 ± 1.2 | 21.1 ± 0.83 | 108.8 ± 0.79 | 103 ± 1.5 | 104.1 ± 0.83 | 75 ± 2.9 | 5.92 ± 0.87 | 4.56 ± 0.052 |
| CC1=NN(c2ccc(C)c(C)c2)C(=O)/C1=N\Nc1cccc(-c2cccc(C(=O)O)c2)c1O | 106.5 ± 0.35 | 104 ± 3.9 | 98.5 ± 2.5 | 108.4 ± 0.85 | 100.7 ± 0.44 | 83.7 ± 3.2 | 99.1 ± 1.1 | 103 ± 3.9 | 100.9 ± 0.81 | 99.8 ± 1 | 106.9 ± 0.69 | 90.7 ± 4 |
| CN(C)CCOC(c1ccccc1)c1ccccc1 [Diphenhydramine HCl] | 105 ± 6 | 97.7 ± 7.7 | 99.9 ± 7.9 | 110 ± 1.5 | 91.1 ± 2.4 | 101 ± 4.7 | 89.4 ± 6.2 | 82.9 ± 10 | 106.2 ± 0.96 | 97.3 ± 2.9 | 97.6 ± 1.7 | 99.2 ± 1.8 |
| Cn1cnc2c(F)c(Nc3ccc(Br)cc3Cl)c(C(=O)NOCCO)cc21 [AZD6244 (Selumetinib)] | 84 ± 9.2 | 89.89 ± 0.22 | 96.8 ± 1.1 | 98.9 ± 5.4 | 84.7 ± 1.2 | 88.21 ± 0.5 | 101.6 ± 0.39 | 100.1 ± 0.89 | 105.2 ± 1 | 106 ± 1.1 | 104 ± 2.8 | 89 ± 2.5 |
| COc1ccccc1N1CCN(CCN2C(=O)CC3(CCCC3)CC2=O)CC1 [BMY 7378] | 104.1 ± 0.41 | 110 ± 3.7 | 100 ± 3.8 | 104.4 ± 0.88 | 105 ± 0.26 | 95.3 ± 2.3 | 96.7 ± 4.4 | 96.58 ± 0.1 | 99.07 ± 0.31 | 98.2 ± 1.8 | 105 ± 1.9 | 105 ± 1.3 |
| CCN(CCO)CCCOc1ccc2c(Nc3cc(CC(=O)Nc4cccc(F)c4)[nH]n3)ncnc2c1 [AZD1152-HQPA (Barasertib)] | 114 ± 6.7 | 111 ± 1.4 | 107 ± 2 | 79.4 ± 1.5 | 68.2 ± 0.79 | 73 ± 1.6 | 97.225 ± 0.04 | 98.1 ± 0.35 | 96.9 ± 0.98 | 91.9 ± 3.1 | 84.56 ± 0.56 | 85.5 ± 2.6 |
| CCCCCOC(=O)Nc1nc(=O)n([C@@H]2O[C@H](C)[C@@H](O)[C@H]2O)cc1F [Capecitabine (Xeloda)] | 108.6 ± 0.75 | 112.3 ± 1.1 | 110 ± 2.9 | 106 ± 1.7 | 110.4 ± 0.14 | 100.35 ± 0.077 | 103 ± 1.9 | 99.6 ± 1.4 | 101.3 ± 0.12 | 99.27 ± 0.86 | 99.79 ± 0.64 | 100 ± 1.3 |
| Cc1cc2c(s1)Nc1ccccc1N=C2N1CCN(C)CC1 [Olanzapine (Zyprexa)] | 108 ± 1.3 | 105 ± 3.1 | 110 ± 2.6 | 115 ± 5.1 | 108 ± 1.7 | 105 ± 4.6 | 103 ± 3 | 100.7 ± 0.71 | 102 ± 4 | 104.8 ± 1 | 96.8 ± 2.5 | 95.1 ± 1.2 |
| CCOc1nc2cccc(C(=O)OC(C)OC(=O)OC3CCCCC3)c2n1Cc1ccc(-c2ccccc2-c2nn[nH]n2)cc1 (stereo not drawn) [Candesartan cilexetil] | 106.1 ± 0.3 | 97.7 ± 2.1 | 102 ± 2.7 | 106 ± 1.2 | 96.9 ± 2.4 | 97.55 ± 0.87 | 96.526 ± 0.053 | 95.8 ± 3.5 | 94.03 ± 0.16 | 97.8 ± 1.6 | 99.8 ± 5.4 | 94.55 ± 0.33 |
| CO[C@H]1/C=C\C=C(/C)C(=O)NC2=CC(=O)C(NCCN(C)C)=C(C[C@@H](C)C[C@H](OC)[C@H](O)[C@@H](C)/C=C(\C)[C@@H]1OC(N)=O)C2=O [17-DMAG] | 76.2 ± 3.6 | 58 ± 3.6 | 28.6 ± 0.72 | 21.7 ± 0.8 | 26.3 ± 0.3 | 16.31 ± 0.12 | 90.6 ± 3 | 41 ± 1.2 | 5.591 ± 0.017 | 5.287 ± 0.051 | 6.16 ± 0.36 | 3.07 ± 0.31 |
| CCCCN1CCCCC1C(=O)Nc1c(C)cccc1C (stereo not drawn) [Bupivacaine HCl (marcain)] | 97.4 ± 2.2 | 104 ± 4.4 | 93.47 ± 0.53 | 93.5 ± 1.1 | 94.1 ± 1.3 | 100 ± 2.3 | 89.4 ± 2.3 | 102 ± 4.2 | 98.8 ± 1.7 | 104 ± 4.7 | 94.37 ± 0.47 | 98.415 ± 0.003 |
| CCN[C@H]1C[C@H](C)S(=O)(=O)c2sc(S(N)(=O)=O)cc21 [Dorzolamide HCl] | 98.73 ± 0.8 | 104.2 ± 0.95 | 108 ± 1.7 | 106.3 ± 0.82 | 96.9 ± 2.5 | 103 ± 3.9 | 99 ± 2.7 | 103 ± 3.2 | 103 ± 1.3 | 103 ± 1.4 | 102 ± 3.7 | 97.53 ± 0.19 |
| COc1ccc(C(CN(C)C)C2(O)CCCCC2)cc1 (stereo not drawn) [Venlafaxine HCl] | 74.8 ± 0.85 | 101 ± 2.7 | 96.3 ± 9.2 | 107 ± 5.2 | 91.33 ± 0.33 | 91.6 ± 2.6 | 85.8 ± 1.9 | 109.5 ± 0.37 | 101 ± 4.2 | 99.6 ± 1.8 | 96.1 ± 5 | 90.61 ± 0.47 |
| CCOc1ccccc1OCCN[C@H](C)Cc1ccc(OC)c(S(N)(=O)=O)c1 [Tamsulosin HCl] | 104 ± 3.8 | 99.7 ± 2.3 | 99.5 ± 2.2 | 102 ± 5 | 97 ± 3.9 | 98.4 ± 4 | 107 ± 5.6 | 104 ± 4.7 | 105 ± 2 | 103 ± 2.4 | 96.4 ± 7 | 98.4 ± 2.6 |
| Nc1cc(C(Cl)=C(Cl)Cl)c(S(N)(=O)=O)cc1S(N)(=O)=O [Clorsulon] | 109 ± 2.7 | 111.6 ± 0.7 | 107 ± 1.5 | 101 ± 2.9 | 98.4 ± 1.1 | 106 ± 1.2 | 81.5 ± 3.3 | 86.2 ± 4 | 73.8 ± 6.7 | 88.2 ± 12 | 91.8 ± 5.8 | 79.6 ± 10 |
| CC[C@@H]1C(=O)N(C)c2cnc(Nc3ccc(C(=O)NC4CCN(C)CC4)cc3OC)nc2N1C1CCCC1 [BI 2536] | 98.2 ± 3.1 | 80.3 ± 1.5 | 47.9 ± 1.7 | 44.6 ± 1.5 | 51.66 ± 0.21 | 29 ± 0.68 | 98.6 ± 1.3 | 66.74 ± 0.51 | 53 ± 1.2 | 43.5 ± 1.5 | 50.6 ± 0.58 | 13 ± 0.48 |
